Experimental data: article PMC6429263, “Evolution and Antibacterial Evaluation of 8-Hydroxy-cycloberberine Derivatives as a Novel Family of Antibacterial Agents Against MRSA” (Molecules, 2019)
Where two headings read alike, the source gives them in different places.

Key:
MRSA ATCC -BAA-976 = assay: MIC, agar dilution, MRSA ATCC-BAA-976 (clindamycin-resistant); type: cell-based; details: Staphylococcus aureus
MRSA 13-18 = assay: MIC, agar dilution, MRSA 13-18; type: cell-based; details: Staphylococcus aureus
MSSE ATCC 12228 = assay: MIC, agar dilution, MSSE ATCC 12228; type: cell-based, S. epidermidis; details: Staphylococcus epidermidis, ATCC12228
MRSA 16-34 = assay: MIC, agar dilution, MRSA 16-34; type: cell-based; details: Staphylococcus aureus
MSSA/MRSA tested strains = tested on: MSSA/MRSA tested strains; parameters: method as in PMID 29795764, PMID 30145374; details: cited from earlier work
MSSA 15 = assay: MIC, agar dilution, MSSA 15 (clinical isolate); type: cell-based, S. aureus; details: Staphylococcus aureus
MSSA ATCC 29213 = assay: MIC, agar dilution, MSSA ATCC 29213; type: cell-based, S. aureus; details: Staphylococcus aureus
VISA ATCC 700699 = assay: MIC, agar dilution, VISA ATCC 700699; type: cell-based; details: Staphylococcus aureus
S.s ATCC 15305 = assay: MIC, agar dilution, S.s ATCC 15305; type: cell-based; details: Staphylococcus saprophyticus, ATCC15305
MSSA 16-1 = assay: MIC, agar dilution, MSSA 16-1 (clinical isolate); type: cell-based, S. aureus; details: Staphylococcus aureus
MRSE 13-3 = assay: MIC, agar dilution, MRSE 13-3; type: cell-based, S. epidermidis; details: Staphylococcus epidermidis
VISA ATCC 700698 = assay: MIC, agar dilution, VISA ATCC 700698; type: cell-based; details: Staphylococcus aureus
MRSA ATCC-B AA-1708 = assay: MIC, agar dilution, MRSA ATCC-BAA-1708 (mupA positive); type: cell-based; details: Staphylococcus aureus
S.h ATCC 35982 = assay: MIC, agar dilution, S.h ATCC 35982; type: cell-based; details: Staphylococcus hominis, ATCC35982
MSSE 16-5 = assay: MIC, agar dilution, MSSE 16-5 (clinical isolate); type: cell-based, S. epidermidis; details: Staphylococcus epidermidis
MRSA 13-23 = assay: MIC, agar dilution, MRSA 13-23; type: cell-based; details: Staphylococcus aureus
MRSA ATCC 43300 = assay: MIC, agar dilution, MRSA ATCC 43300; type: cell-based; details: Staphylococcus aureus
MRSE 16-5 = assay: MIC, agar dilution, MRSE 16-5; type: cell-based, S. epidermidis; details: Staphylococcus epidermidis
Stability in whole blood = type: in vitro ADME, SD rat; details: for Rr (remaining ratio): whole blood, 37 °C
Experimental: Fresh blood was collected on the day of experiment from SD rats and pre-warmed in a water bath at 37 °C. 10 mM test compound or Ems stock solutions were prepared in DMSO, and then diluted with 45% MeOH/H2O to achieve 100 μM dosing solutions. Each dosing solution (2 μL) was incubated with 98 µL of blank blood at 37 °C in water bath for 0, 0.5, 1, 3, 7 and 24 h, respectively. At the end of incubation, for each sample, 100 μL water and 800 μL of stop solution (200 ng/mL tolbutamide plus 20 ng/mL buspirone in ACN) were immediately added to precipitate protein and centrifuge at 4,000 rpm for 20 min. An aliquot of supernatant (100 μL) was then extracted, mixed with 200 μL H2O and then shook at 800 rpm for about 10 min before submitting to LC-MS/MS analysis. The experiment was repeated two times.

[1] = tested on: drug-susceptible strains: MSSA, MSSE, S. saprophyticus, S. hominis; assay: MIC across the panel of drug-susceptible Gram-positive strains; type: cell-based; details: drug-susceptible Gram-positive strains of Table 1
Description: SAR study for antibacterial activity against drug-susceptible Gram-positive bacteria was initially carried out, taking Lev and compound 1 as reference drugs. […] Bacteria strains used in this study were from the ATCC collection and clinical isolates in Chinese hospitals. The influence of the methylenedioxy ring was explored first, and compounds 6 and 10 were created and tested.

[2] = MRSA ATCC-BAA-976, clindamycin-resistant S. aureus, read-out: MIC
[3] = MSSA 15, isolated from patients in China, read-out: MIC
[4] = VISA ATCC 700699, read-out: MIC
[5] = S. saprophyticus ATCC 15305, read-out: MIC
[6] = MSSA 16-1, isolated from patients in China, read-out: MIC
[7] = VISA ATCC 700698, read-out: MIC
[8] = MRSA ATCC-BAA-1708, mupA positive (mupirocin resistance), read-out: MIC
[9] = S. hominis ATCC 35982, read-out: MIC
[10] = MSSE 16-5, isolated from patients in China, read-out: MIC

COc1ccc2c(c[n+]3c4c2ccc2c5c(cc(c24)CC3)OCO5)c1OC [CBBR, cycloberberine]
MIC (MRSA ATCC -BAA-976; [2]): > 64 µg/mL | MIC (MRSA 13-18; MRSA 13-18, read-out: MIC): > 64 µg/mL | MIC (MSSE ATCC 12228; MSSE ATCC 12228, read-out: MIC): > 64 µg/mL | MIC (MRSA 16-34; MRSA 16-34, read-out: MIC): > 64 µg/mL | bactericidal activity (MSSA/MRSA tested strains; MSSA/MRSA): no bactericidal activity at all | MICs (range over strains) (MSSA/MRSA tested strains; tested strains such as MRSA): > 64 µg/mL | MIC (MSSA 15; [3]): > 64 µg/mL | MIC (MSSA ATCC 29213; MSSA ATCC 29213, read-out: MIC): > 64 µg/mL | MIC (VISA ATCC 700699; [4]): > 64 µg/mL | MIC (S.s ATCC 15305; [5]): > 64 µg/mL | MIC (MSSA 16-1; [6]): > 64 µg/mL | MIC (MRSE 13-3; MRSE 13-3, read-out: MIC): > 64 µg/mL | MIC (VISA ATCC 700698; [7]): > 64 µg/mL | MIC (MRSA ATCC-B AA-1708; [8]): > 64 µg/mL | MIC (S.h ATCC 35982; [9]): > 64 µg/mL | MIC (MSSE 16-5; [10]): > 64 µg/mL | MIC (MRSA 13-23; MRSA 13-23, read-out: MIC): > 64 µg/mL | MIC (MRSA ATCC 43300; MRSA ATCC 43300, read-out: MIC): > 64 µg/mL | MIC (MRSE 16-5; MRSE 16-5, read-out: MIC): > 64 µg/mL

CCOC(=O)[C@H](CCc1ccccc1)N[C@@H](C)C(=O)N1CCC[C@H]1C(=O)O [Ems, enalapril]
stability in whole blood (Stability in whole blood): completely decomposed | Rr (remaining ratio) (Stability in whole blood; 0 h): 100% | Rr (remaining ratio) (Stability in whole blood; 0.5 h): 37.5% | Rr (remaining ratio) (Stability in whole blood; 1 h): 9.1% | Rr (remaining ratio) (Stability in whole blood; 3 h): 0% | Rr (remaining ratio) (Stability in whole blood; 7 h): 0% | Rr (remaining ratio) (Stability in whole blood; 24 h): 0%

COc1ccc2c(c[n+]3c4c2ccc2c5c(cc(c24)CC3)OCO5)c1O [compound 1, reference compound]
MIC (MRSA ATCC -BAA-976): 1 µg/mL | MIC (MRSA 13-18; MRSA): 1 µg/mL | MIC (MSSE ATCC 12228): 0.5 µg/mL | MIC (MRSA 16-34; MRSA): 0.5 µg/mL | MIC (MSSA 15; MSSA): 4 µg/mL | MIC (MSSA ATCC 29213): 0.5 µg/mL | MIC (VISA ATCC 700699): 0.5 µg/mL | MIC (S.s ATCC 15305): > 64 µg/mL | MIC (MSSA 16-1; MSSA): 1 µg/mL | MIC (MRSE 13-3; MRSE): > 64 µg/mL | MIC (VISA ATCC 700698): 1 µg/mL | MIC (MRSA ATCC-B AA-1708): 0.5 µg/mL | MIC (S.h ATCC 35982): 1 µg/mL | MIC (MSSE 16-5): 0.5 µg/mL | MIC (MRSA 13-23; MRSA): 1 µg/mL | MIC (MRSA ATCC 43300): 0.5 µg/mL | MIC (MRSE 16-5; MRSE): 0.5 µg/mL

COc1ccc2c(c[n+]3c4c2ccc2c(OC)c(OC)cc(c24)CC3)c1O [compound 6, 1,2-Dimethoxy-8-hydroxy-9-methoxycycloberberine Chloride]
MIC (MRSA ATCC -BAA-976; [2]): > 64 µg/mL | MIC (MRSA 13-18; MRSA 13-18, read-out: MIC): > 64 µg/mL | MIC (MSSE ATCC 12228; MSSE ATCC 12228, read-out: MIC): > 64 µg/mL | MIC (MRSA 16-34; MRSA 16-34, read-out: MIC): > 64 µg/mL | MIC (MSSA 15; [3]): > 64 µg/mL | MIC (MSSA ATCC 29213; MSSA ATCC 29213, read-out: MIC): > 64 µg/mL | MIC (VISA ATCC 700699; [4]): > 64 µg/mL | MIC (S.s ATCC 15305; [5]): > 64 µg/mL | MIC (MSSA 16-1; [6]): > 64 µg/mL | MIC (MRSE 13-3; MRSE 13-3, read-out: MIC): > 64 µg/mL | MIC (VISA ATCC 700698; [7]): > 64 µg/mL | MIC (MRSA ATCC-B AA-1708; [8]): > 64 µg/mL | MIC (S.h ATCC 35982; [9]): > 64 µg/mL | MIC (MSSE 16-5; [10]): > 64 µg/mL | antimicrobial activity [1]: lost the antimicrobial activities partially or completely | MIC (MRSA 13-23; MRSA 13-23, read-out: MIC): > 64 µg/mL | MIC (MRSA ATCC 43300; MRSA ATCC 43300, read-out: MIC): > 64 µg/mL | MIC (MRSE 16-5; MRSE 16-5, read-out: MIC): > 64 µg/mL

COc1ccc2c(c[n+]3c4c2ccc2c(O)c(O)cc(c24)CC3)c1O [compound 10, 1,2,8-Trihydroxy-9-methoxycycloberberine Chloride]
MIC (MRSA ATCC -BAA-976; [2]): 64 µg/mL | MIC (MRSA 13-18; MRSA 13-18, read-out: MIC): 32 µg/mL | MIC (MSSE ATCC 12228; MSSE ATCC 12228, read-out: MIC): 8 µg/mL | MIC (MRSA 16-34; MRSA 16-34, read-out: MIC): 16 µg/mL | MIC (MSSA 15; [3]): 16 µg/mL | MIC (MSSA ATCC 29213; MSSA ATCC 29213, read-out: MIC): 32 µg/mL | MIC (VISA ATCC 700699; [4]): 32 µg/mL | MIC (S.s ATCC 15305; [5]): 32 µg/mL | MIC (MSSA 16-1; [6]): 32 µg/mL | MIC (MRSE 13-3; MRSE 13-3, read-out: MIC): 32 µg/mL | MIC (VISA ATCC 700698; [7]): 32 µg/mL | MIC (MRSA ATCC-B AA-1708; [8]): 16 µg/mL | MIC (S.h ATCC 35982; [9]): 32 µg/mL | MIC (MSSE 16-5; [10]): 16 µg/mL | antimicrobial activity [1]: lost the antimicrobial activities partially or completely | MIC (MRSA 13-23; MRSA 13-23, read-out: MIC): 64 µg/mL | MIC (MRSA ATCC 43300; MRSA ATCC 43300, read-out: MIC): 32 µg/mL | MIC (MRSE 16-5; MRSE 16-5, read-out: MIC): 16 µg/mL
